In PubChem BioAssay AID2060504 (Molecular Pharmacology Branch, DTP, NCI, 2025):

Test system: 636577-100-R-J1-PDC complex spheroid viability
Test: Anticancer human tumor 636577-100-R-J1-PDC patient-derived endometrial adenocarcinoma cell line growth inhibition [GQUAD]
Settings: for IC50: curve of first compound; for viability, T/C: stronger effect = lower value; active = viability on the fitted dose curve at most 10% of control; inactive = the rest
How it was run: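 Viability of tumor cells grown as complex spheroids with endothelial and stromal cells, exposed to drug combinations. Top concentration at or near clinical Cmax (else 10 microM), diluted in half-log increments.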

[1] = second compound 0.0316 µM, first compound 0.0316 µM
[2] = second compound 0.0316 µM, first compound 0.1 µM
[3] = second compound 0.0316 µM, first compound 0.316 µM
[4] = second compound 0.0316 µM, first compound 1 µM
[5] = second compound 0.0316 µM, first compound 3.16 µM
[6] = second compound 0.0316 µM, first compound 10 µM
[7] = second compound 0.1 µM, first compound 0.0316 µM
[8] = second compound 0.1 µM, first compound 0.1 µM
[9] = second compound 0.1 µM, first compound 0.316 µM
[10] = second compound 0.1 µM, first compound 1 µM
[11] = second compound 0.1 µM, first compound 3.16 µM
[12] = second compound 0.1 µM, first compound 10 µM
[13] = second compound 0.316 µM, first compound 0.0316 µM
[14] = second compound 0.316 µM, first compound 0.1 µM
[15] = second compound 0.316 µM, first compound 0.316 µM
[16] = second compound 0.316 µM, first compound 1 µM
[17] = second compound 0.316 µM, first compound 3.16 µM
[18] = second compound 0.316 µM, first compound 10 µM
[19] = second compound 1 µM, first compound 0.0316 µM
[20] = second compound 1 µM, first compound 0.1 µM
[21] = second compound 1 µM, first compound 0.316 µM
[22] = second compound 1 µM, first compound 1 µM
[23] = second compound 1 µM, first compound 3.16 µM
[24] = second compound 1 µM, first compound 10 µM
[25] = second compound 3.16 µM, first compound 0.0316 µM
[26] = second compound 3.16 µM, first compound 0.1 µM
[27] = second compound 3.16 µM, first compound 0.316 µM
[28] = second compound 3.16 µM, first compound 1 µM
[29] = second compound 3.16 µM, first compound 3.16 µM
[30] = second compound 3.16 µM, first compound 10 µM
[31] = second compound 10 µM, first compound 0.0316 µM
[32] = second compound 10 µM, first compound 0.1 µM
[33] = second compound 10 µM, first compound 0.316 µM
[34] = second compound 10 µM, first compound 1 µM
[35] = second compound 10 µM, first compound 3.16 µM
[36] = second compound 10 µM, first compound 10 µM
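Also: viability read after seven days of drug exposure.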
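For viability, T/C in this document: luminescence signal used as a proxy for viable cells; 100% = DMSO vehicle control wells.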

CC(C)n1c(=O)n(C)c2cnc3cc(F)c(-c4ccc(OCCCN5CCCCC5)nc4)cc3c21 + CN(C)c1ccc(Nc2c3ccc(NC(=O)CCN4CCCC4)cc3nc3cc(NC(=O)CCN4CCCC4)ccc23)cc1
4.9 µM: IC50 (second compound 1 µM)
8.49 µM: IC50 (second compound 0.316 µM)
> 10 µM: IC50 (second compound 0.0316 µM) | IC50 (second compound 0.1 µM)
< 0.0316 µM: IC50 (second compound 3.16 µM) | IC50 (second compound 10 µM)
active: viability, T/C [31] 7% | viability, T/C [32] 5.49% | viability, T/C [33] 4.48% | viability, T/C [34] 2.77% | viability, T/C [35] 2.25% | viability, T/C [36] 0.79%
inactive: viability, T/C [1] 121% | viability, T/C [2] 101% | viability, T/C [3] 127% | viability, T/C [4] 49.5% | viability, T/C [5] 93.8% | viability, T/C [6] 53.5% | viability, T/C [7] 128% | viability, T/C [8] 102% | viability, T/C [9] 109% | viability, T/C [10] 74.9% | viability, T/C [11] 82.1% | viability, T/C [12] 52.4% | viability, T/C [13] 67.6% | viability, T/C [14] 81.7% | viability, T/C [15] 103% | viability, T/C [16] 63.6% | viability, T/C [17] 71.7% | viability, T/C [18] 46.6% | viability, T/C [19] 60% | viability, T/C [20] 67.8% | viability, T/C [21] 75.9% | viability, T/C [22] 57% | viability, T/C [23] 61.6% | viability, T/C [24] 33.5% | viability, T/C [25] 39% | viability, T/C [26] 36.2% | viability, T/C [27] 30.2% | viability, T/C [28] 27% | viability, T/C [29] 20.6% | viability, T/C [30] 14.5%

CC(C)n1c(=O)n(C)c2cnc3cc(F)c(-c4ccc(OCCCN5CCCCC5)nc4)cc3c21 + Cc1[nH]c2ccc(F)cc2c1-c1nc2c3cccnc3c3ncccc3c2[nH]1
3.59 µM: IC50 (second compound 3.16 µM)
10 µM: IC50 (second compound 0.1 µM)
0.0316 µM: IC50 (second compound 1 µM)
> 10 µM: IC50 (second compound 0.0316 µM)
7.08 µM: IC50 (second compound 0.316 µM)
6.96 µM: IC50 (second compound 10 µM)
inactive: viability, T/C [1] 73.1% | viability, T/C [2] 74.1% | viability, T/C [3] 88.2% | viability, T/C [4] 30% | viability, T/C [5] 99.5% | viability, T/C [6] 52.4% | viability, T/C [7] 74.4% | viability, T/C [8] 91% | viability, T/C [9] 70.8% | viability, T/C [10] 37.9% | viability, T/C [11] 69.7% | viability, T/C [12] 48.6% | viability, T/C [13] 80.9% | viability, T/C [14] 96.9% | viability, T/C [15] 60.6% | viability, T/C [16] 58.2% | viability, T/C [17] 87.7% | viability, T/C [18] 38.5% | viability, T/C [19] 57.2% | viability, T/C [20] 43.3% | viability, T/C [21] 60.9% | viability, T/C [22] 54.3% | viability, T/C [23] 98.5% | viability, T/C [24] 46.8% | viability, T/C [25] 57.1% | viability, T/C [26] 54.3% | viability, T/C [27] 59.3% | viability, T/C [28] 70.8% | viability, T/C [29] 47% | viability, T/C [30] 29.8% | viability, T/C [31] 71.9% | viability, T/C [32] 50.6% | viability, T/C [33] 85.5% | viability, T/C [34] 89.3% | viability, T/C [35] 70% | viability, T/C [36] 40%
